Measured values taken from US20140171438A1, “Hybrid Compounds And Methods Of Making And Using The Same” (CELLCEUTIX CORPORATION, priority 2012, published 2014).
Converted amounts (≈) assume the structure as drawn. Where two headings read alike, the source gives them in different places.

Key:
Type in all cases: cell-based
[1] = tested on: Pseudomonas aeruginosa ATCC 10145; assay: Antimicrobial activity, MIC, modified microbroth dilution; settings: read-out: MIC (expressed as MIC50) P. Aeruginosa
Method: (§1) The compounds were screened for antimicrobial activity against a number of ATCC bacterial strains. Minimum Inhibitory Concentrations (MIC) of each of the compounds were determined using standard CLSI procedures modified by Hancock protocol against E. Coli ATCC 25922, Staphylococcus aureus ATCC 27660, Enterococcus faecalis ATCC 29212, Pseudomonas aeruginosa ATCC 10145, and Klebsiella pneumoniae ATCC 13883.
(§2) This procedure is a modification of the standard microbroth dilution assay recommended by the National Committee for Clinical Laboratory Standards (NCCLS) which has been developed for determining in vitro antimicrobial activities of cationic agents (Steinberg et al., Antimicrob. Agents Chemother., 1997, 41, 1738; and Yan et al., Antimicrob. Agents Chemother., 2001, 45, 1558). The modifications were made to minimize loss of the antimicrobial agent due to adsorption onto glass or plastic surfaces and by precipitation at high concentrations.
(§3) Three mL of Mueller-Hinton II Broth (cation-adjusted) was inoculated with 5 μL of frozen bacterial stock and incubated at 37° C. on a shaker platform (at 250 rpm) overnight. Compound stock solutions were prepared in DMSO and serial two-fold dilutions of compound were made in 0.01% acetic acid, 0.2% bovine serum albumin directly in the wells of the polypropylene plate at 10 μL/well. […] All samples were performed in duplicate. The overnight bacteria suspension was diluted to approximately 10^6 cfu/mL and inoculated into a polypropylene (Costar) 96-well round bottom plate (90 μL volumes). One set of control wells included broth-only samples with dilution buffer for testing sterility and providing blank values for the assay readings. Vehicle-control wells containing the bacterial suspension with DMSO (no compound) were also included. Following the overnight incubation (18 hours), cell growth was assessed by observing the presence of “acceptable growth”, defined by NCCLS as a ≧2 mm button or definite turbidity.
(§4) Actual results from a representative MIC assay are shown below in Table 1. Data is expressed as MIC50 in μg/mL. The bacterial isolates were as follows: E. coli (25922); S. aureus (27660); E. faecalis (29212); P. aeruginosa (10145); and K. pneumoniae (13883).

[2] = tested on: Enterococcus faecalis ATCC 29212; assay: as above; settings: read-out: MIC (expressed as MIC50) E. faecalis
Method: as §1, §2, §3, §4

[3] = tested on: Staphylococcus aureus ATCC 27660; assay: as above; settings: read-out: MIC (expressed as MIC50) S. aureus
Method: as §1, §2, §3, §4

[4] = tested on: E. Coli ATCC 25922; assay: as above; settings: Escherichia coli, read-out: MIC (expressed as MIC50) E. coli
Method: as §1, §2, §3, §4

[5] = tested on: Klebsiella pneumoniae ATCC 13883; assay: as above; settings: read-out: MIC (expressed as MIC50) K. Pnuemnoiae
Method: as §1, §2, §3, §4

[6] = Cytotoxicity, colorimetric tetrazolium assay; settings: one hour with compound in serum-free media
Method: Cytotoxicity of the compounds was evaluated in a colorimetric assay using a transformed human liver cell line (HepG2, HB-8065) and an embryonic mouse cell line (NIH/3T3 cells, CRL-1658). This assay measures the bioreduction of a novel tetrazolium compound to a soluble formazan product by viable cells. HepG2 cells were seeded in 96 well plates at 2×10^4 cells/well in MEM medium with 10% fetal bovine serum (FBS) for 24 hours prior to use. NIH/3T3 cells were seeded in 96 well plates at 2×10^4 cells/well in DMEM medium with 10% bovine calf serum (BCS) 24 hours prior to use. Cell monolayers were rinsed in serum-free media and incubated for one hour with the compound in serum-free media. After incubation, the media was replaced with serum supplemented media and live cells were measured using the Cell Titer 96 Aqueous […] (Promega, Madison, Wis.). EC50 values were determined using a four parameter logistic equation: Y=Bottom+(Top−Bottom)/(1+10̂((Log EC50−X)*HillSlope)). Actual results from a representative cytotoxicity assay are shown below in Table 2. Data is expressed as EC50 in μg/mL.

[7] = ATCC10145, P. aeruginosa (10145), 18 hours incubation
[8] = ATCC29212, E. faecalis (29212), 18 hours incubation
[9] = ATCC27660, S. aureus (27660), 18 hours incubation
[10] = ATCC25922, E. coli (25922), 18 hours incubation
[11] = ATCC13883, K. pneumoniae (13883), 18 hours incubation
[12] = mouse, NIH/3T3 cells (CRL-1658)

## N=C(N)NCCCCC(=O)Nc1cc(C(F)(F)F)cc(NC(=O)Nc2ccc(Oc3ccc(NCCN)c(C(F)(F)F)c3)c(CCCN)c2)c1O[C@@H]1CCNC1 [Compound 109, N-[3-[[4-[4-(2-aminoethylamino)-3-(trifluoromethyl)phenoxy]-3-(3-aminopropyl)phenyl]carbamoylamino]-2-[(3R)-pyrrolidin-3-yl]oxy-5-(trifluoromethyl)phenyl]-5-guanidino-pentanamide]
[1]; [7]
  MIC50: 12.5 µg/mL (≈ 15.7 µM)
[2]; [8]
  MIC50: 1.56 µg/mL (≈ 1.96 µM)
[3]; [9]
  MIC50: 3.13 µg/mL (≈ 3.93 µM)
[4]; [10]
  MIC50: 6.25 µg/mL (≈ 7.84 µM)
[5]; [11]
  MIC50: 6.25 µg/mL (≈ 7.84 µM)
[6]; human, HepG2 cells (HB-8065)
  EC50 at 1 h: 409 µg/mL (≈ 513 µM)
[6]; [12]
  EC50 at 1 h: 256 µg/mL (≈ 321 µM)

## NCC#Cc1cc(-n2ccc3cc([N+](=O)[O-])ccc32)cc(C(F)(F)F)c1 [Compound 115]
[1]; [7]
  MIC: 7.5 µg/mL (≈ 20.9 µM)
[2]; [8]
  MIC: 25 µg/mL (≈ 69.6 µM)
[3]; [9]
  MIC: 6.25 µg/mL (≈ 17.4 µM)
[4]; [10]
  MIC: 25 µg/mL (≈ 69.6 µM)
[5]; [11]
  MIC: 25 µg/mL (≈ 69.6 µM)
[6]; human, HepG2 cells (HB-8065)
  EC50 at 1 h: 74.3 µg/mL (≈ 207 µM)
[6]; [12]
  EC50 at 1 h: 43.3 µg/mL (≈ 121 µM)

## N=C(N)NCCCCC(=O)Nc1cc(C(F)(F)F)cc(NC(=O)Nc2ccc(Oc3cc([N+](=O)[O-])cc(C(F)(F)F)c3)cc2)c1O[C@@H]1CCNC1 [Compound 101, [3-[4-[[3-(5-guanidinopentanoylamino)-2-[(3R)-pyrrolidin-3-yl]oxy-5-(trifluoromethyl)phenyl]carbamoylamino]phenoxy]-5-(trifluoromethyl)phenyl]azinic acid]
[1]; ATCC10145, 18 h
  MIC50: > 100 µg/mL
[2]; ATCC29212, 18 h
  MIC50: 100 µg/mL (≈ 138 µM)
[3]; ATCC27660, 18 h
  MIC50: 50 µg/mL (≈ 68.8 µM)
[4]; ATCC25922, 18 h
  MIC50: > 100 µg/mL
[5]; ATCC13883, 18 h
  MIC50: 100 µg/mL (≈ 138 µM)
[6]; human, HepG2 cells (HB-8065)
  EC50 at 1 h: > 1000 µg/mL
[6]; [12]
  EC50 at 1 h: > 1000 µg/mL

## N=C(N)NCCCCC(=O)Nc1cc(C(F)(F)F)cc(NC(=O)Nc2ccc(Oc3cc(N)cc(C(F)(F)F)c3)cc2)c1SCCN [Compound 102, (4-(2-(2-aminoethylthio)-3-(3-(4-(3-amino-5-(trifluoromethyl)phenoxy)phenyl)ureido)-5-(trifluoromethyl)phenylcarbamoyl)butyl) guanidine]
[1]; [7]
  MIC50: 12.5 µg/mL (≈ 18.2 µM)
[2]; [8]
  MIC50: 6.25 µg/mL (≈ 9.1 µM)
[3]; [9]
  MIC50: 0.78 µg/mL (≈ 1.14 µM)
[4]; [10]
  MIC50: 3.13 µg/mL (≈ 4.56 µM)
[5]; [11]
  MIC50: 6.25 µg/mL (≈ 9.1 µM)
[6]; human, HepG2 cells (HB-8065)
  EC50 at 1 h: 68 µg/mL (≈ 99 µM)
[6]; [12]
  EC50 at 1 h: 36.7 µg/mL (≈ 53.4 µM)

## N=C(N)NCCCCC(=O)Nc1cc(C(F)(F)F)cc(NC(=O)Nc2ccc(Oc3cc(NCCCN)cc(C(F)(F)F)c3)cc2)c1SCCN [Compound 105, (4-(2-(2-aminoethylthio)-3-(3-(4-(3-(3-aminopropylamino)-5-(trifluoromethyl)phenoxy)phenyl)ureido)-5-(trifluoromethyl)phenylcarbamoyl)butyl)guanidine]
[1]; [7]
  MIC50: 3.13 µg/mL (≈ 4.21 µM)
[2]; [8]
  MIC50: 0.78 µg/mL (≈ 1.05 µM)
[3]; [9]
  MIC50: 0.195 µg/mL (≈ 0.262 µM)
[4]; [10]
  MIC50: 1.56 µg/mL (≈ 2.1 µM)
[5]; [11]
  MIC50: 1.56 µg/mL (≈ 2.1 µM)
[6]; human, HepG2 cells (HB-8065)
  EC50 at 1 h: 40 µg/mL (≈ 53.8 µM)
[6]; [12]
  EC50 at 1 h: 49.4 µg/mL (≈ 66.4 µM)

## N=C(N)NCCCCC(=O)Nc1cc(C(F)(F)F)cc(NC(=O)Nc2cccc(Oc3cc(NC(=N)N)cc(C(F)(F)F)c3)c2)c1SCCN [Compound 107, N-[2-(2-aminoethylsulfanyl)-3-[[3-[3-guanidino-5-(trifluoromethyl)phenoxy]phenyl]carbamoylamino]-5-(trifluoromethyl)phenyl]-5-guanidino-pentanamide]
[1]; [7]
  MIC50: 6.25 µg/mL (≈ 8.58 µM)
[2]; [8]
  MIC50: 12.5 µg/mL (≈ 17.2 µM)
[3]; [9]
  MIC50: 0.39 µg/mL (≈ 0.535 µM)
[4]; [10]
  MIC50: 3.13 µg/mL (≈ 4.3 µM)
[5]; [11]
  MIC50: 12.5 µg/mL (≈ 17.2 µM)

## N=C(N)NCCCCC(=O)Nc1cc(C(F)(F)F)cc(NC(=O)Nc2ccc3nc(NC(=O)Nc4cc(C(F)(F)F)cc(NC(=O)CCCCNC(=N)N)c4O[C@@H]4CCNC4)sc3c2)c1O[C@@H]1CCNC1 [Compound 112, 5-guanidino-N-[3-[[2-[[3-(5-guanidinopentanoylamino)-2-[(3R)-pyrrolidin-3-yl]oxy-5-(trifluoromethyl)phenyl]carbamoylamino]-1,3-benzothiazol-6-yl]carbamoylamino]-2-[(3R)-pyrrolidin-3-yl]oxy-5-(trifluoromethyl)phenyl]pentanamide]
[1]; [7]
  MIC50: 25 µg/mL (≈ 24.5 µM)
[2]; [8]
  MIC50: 1.56 µg/mL (≈ 1.53 µM)
[3]; [9]
  MIC50: 0.098 µg/mL (≈ 0.0959 µM)
[4]; [10]
  MIC50: 1.56 µg/mL (≈ 1.53 µM)
[5]; [11]
  MIC50: 3.13 µg/mL (≈ 3.06 µM)
[6]; human, HepG2 cells (HB-8065)
  EC50 at 1 h: 105 µg/mL (≈ 103 µM)
[6]; [12]
  EC50 at 1 h: 52.5 µg/mL (≈ 51.4 µM)

## N=C(N)NCCCCC(=O)Nc1cc(C(F)(F)F)cc(NC(=O)Nc2cccc(Oc3cc(NCCCN)cc(C(F)(F)F)c3)c2)c1SCCN [Compound 117]
[1]; [7]
  MIC50: 6.25 µg/mL (≈ 8.4 µM)
[2]; [8]
  MIC50: 3.13 µg/mL (≈ 4.21 µM)
[3]; [9]
  MIC50: 0.39 µg/mL (≈ 0.524 µM)
[4]; [10]
  MIC50: 1.56 µg/mL (≈ 2.1 µM)
[5]; [11]
  MIC50: 3.13 µg/mL (≈ 4.21 µM)

## N=C(N)NCCCCC(=O)Nc1cc(C(F)(F)F)cc(NC(=O)Nc2cccc(Oc3cc(NC(=N)N)cc(C(F)(F)F)c3)c2)c1O[C@@H]1CCNC1 [Compound 116, 5-guanidino-N-[3-[[3-[3-guanidino-5-(trifluoromethyl)phenoxy]phenyl]carbamoylamino]-2-[(3R)-pyrrolidin-3-yl]oxy-5-(trifluoromethyl)phenyl]pentanamide]
[1]; [7]
  MIC50: 6.25 µg/mL (≈ 8.46 µM)
[2]; [8]
  MIC50: 12.5 µg/mL (≈ 16.9 µM)
[3]; [9]
  MIC50: 0.39 µg/mL (≈ 0.528 µM)
[4]; [10]
  MIC50: 3.13 µg/mL (≈ 4.24 µM)
[5]; [11]
  MIC50: 12.5 µg/mL (≈ 16.9 µM)

## N=C(N)NCCCCC(=O)Nc1cc(C(F)(F)F)cc(NC(=O)Nc2ccc(Oc3cc(N)cc(C(F)(F)F)c3)cc2)c1O[C@@H]1CCNC1 [Compound 103, (4-(2-((R)-pyrrolidin-3-yloxy)-3-(3-(4-(3-amino-5-(trifluoromethyl)phenoxy)phenyl)ureido)-5-(trifluoromethyl)phenylcarbamoyl)butyl)guanidine]
[1]; [7]
  MIC50: 12.5 µg/mL (≈ 17.9 µM)
[2]; [8]
  MIC50: 12.5 µg/mL (≈ 17.9 µM)
[3]; [9]
  MIC50: 0.78 µg/mL (≈ 1.12 µM)
[4]; [10]
  MIC50: 3.13 µg/mL (≈ 4.49 µM)
[5]; [11]
  MIC50: 12.5 µg/mL (≈ 17.9 µM)

## N=C(N)NCCCCC(=O)Nc1cc(C(F)(F)F)cc(NC(=O)Nc2cccc(Oc3cc(NCCCN)cc(C(F)(F)F)c3)c2)c1O[C@@H]1CCNC1 [Compound 118, N-[3-[[3-[3-(3-aminopropylamino)-5-(trifluoromethyl)phenoxy]phenyl]carbamoylamino]-2-[(3R)-pyrrolidin-3-yl]oxy-5-(trifluoromethyl)phenyl]-5-guanidino-pentanamide]
[1]; [7]
  MIC50: 6.25 µg/mL (≈ 8.29 µM)
[2]; [8]
  MIC50: 3.13 µg/mL (≈ 4.15 µM)
[3]; [9]
  MIC50: 0.195 µg/mL (≈ 0.259 µM)
[4]; [10]
  MIC50: 3.13 µg/mL (≈ 4.15 µM)
[5]; [11]
  MIC50: 3.13 µg/mL (≈ 4.15 µM)
